For one data set, the system named is β-adrenergic. The settings on record: cited from earlier work.
The subject of another data set is pupil diameter. The data set can be described thus: Test Example 2 (2): pupil diameter, pigmented rabbits. The class given is in vivo, pigmented rabbits (Dutch belted rabbits). As to conditions: 0.5% aqueous solution (FIG. 4), 0.5 to 6 hours. As for the experimental part: Forty (40) male pigmented rabbits (Dutch belted rabbits) weighing about 2 kg, after having been confirmed to be free from ocular abnormalities, were bred in a breeding room maintained at a temperature of 24± 4° C. and at a relative humidity of 55± 15%, while they were fed solid food (Labo RG-RO, manufactured by Nihon Nohsan Kogyo K.K.) at a daily rate of 100 g per rabbit and allowed free access to tap water as drinking water. As a test drug, amosulalol hydrochloride was processed into 0.05%, 0.5% and 1.0% aqueous solutions which were used in the test, and 0.5% timolol maleate ophthalmic solution [Timoptol (registered trademark): Ban-yu Pharmaceutical Co.] and physiological saline were used as a positive control drug and a control substance, respectively. (2) Measurement of pupil diameter: With each of the rabbits as used under the above item (1), pupil diameter was measured for both eyes using a micrometer caliper, before instillation and 0.5, 1, 2, 3, 4, and 6 hours after topical application of the respective test drugs and physiological saline, respectively. […] The signs "a" and "c" designate physiological saline, 0.5% aqueous solution of amosulalol hydrochloride, respectively.

For the molecule `COc1ccccc1OCCNCC(O)c1ccc(C)c(S(N)(=O)=O)c1.Cl` (centres unmarked) [amosulalol hydrochloride, 5-[1-hydroxy-2-[2-(2-methoxyphenoxy)ethylamino]ethyl]-2-methylbenzenesulfonamide hydrochloride], the β-adrenergic blocking activity result with β-adrenergic was “exhibit both α-adrenergic and β-adrenergic blocking activities”. Further, the “change in pupil diameter” value in the data set on pupil diameter was “no significant change in the pupil diameter”.

Source of the values: patent publication US5663205A, “Pharmaceutical composition for use in glaucoma treatment” (Senju Pharmaceutical Co. Ltd., priority 1992, dated 1997).
